Test results as given in ChEMBL document CHEMBL1909046, “DrugMatrix in vitro pharmacology data”.

How the values were obtained:
[1] = molecular target: T1, Alpha-1A adrenergic receptor (Rattus norvegicus, UniProt P43140); assay: DRUGMATRIX: Alpha-1A adrenergic receptor radioligand binding (ligand: prazosin); assay type: cell membranes, Wistar, Submaxillary gland, Membrane; settings: Not Active = under 50% inhibition at 10 µM
T1 sequence (P43140 whole entry): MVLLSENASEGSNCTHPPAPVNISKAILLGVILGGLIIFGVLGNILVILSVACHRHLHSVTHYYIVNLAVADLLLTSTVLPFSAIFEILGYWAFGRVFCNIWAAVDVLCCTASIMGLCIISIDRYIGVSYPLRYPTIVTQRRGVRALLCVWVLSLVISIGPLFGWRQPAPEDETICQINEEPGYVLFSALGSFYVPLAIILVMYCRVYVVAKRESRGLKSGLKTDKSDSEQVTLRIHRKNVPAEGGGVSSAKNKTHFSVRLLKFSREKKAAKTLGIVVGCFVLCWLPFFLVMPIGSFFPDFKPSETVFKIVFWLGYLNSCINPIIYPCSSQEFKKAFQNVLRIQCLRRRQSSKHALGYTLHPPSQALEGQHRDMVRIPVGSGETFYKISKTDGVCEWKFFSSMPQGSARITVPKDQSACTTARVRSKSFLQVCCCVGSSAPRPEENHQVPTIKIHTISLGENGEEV

[2] = molecular target: 5-hydroxytryptamine receptor 2B (Homo sapiens, UniProt P41595); assay type: cell membranes, CHO-K1, Membrane; settings: cho-k1; also: in other assays of this panel Not Active means under 50% inhibition at 10 µM
Substance-P receptor = Substance-P receptor (Homo sapiens, UniProt P25103); assay type: cell membranes, Membrane; settings: cho; also: in other assays of this panel Not Active means under 50% inhibition at 10 µM
Thromboxane-A synthase = molecular target: T2, Thromboxane-A synthase (Homo sapiens, UniProt P24557); assay: biochemical; assay type: tissue-based, Platelet;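 also: enzyme inhibition assay with PGH2 supplied as substrate; in other assays of this panel Not Active means under 50% inhibition at 10 µM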
T2 sequence (P24557 whole entry): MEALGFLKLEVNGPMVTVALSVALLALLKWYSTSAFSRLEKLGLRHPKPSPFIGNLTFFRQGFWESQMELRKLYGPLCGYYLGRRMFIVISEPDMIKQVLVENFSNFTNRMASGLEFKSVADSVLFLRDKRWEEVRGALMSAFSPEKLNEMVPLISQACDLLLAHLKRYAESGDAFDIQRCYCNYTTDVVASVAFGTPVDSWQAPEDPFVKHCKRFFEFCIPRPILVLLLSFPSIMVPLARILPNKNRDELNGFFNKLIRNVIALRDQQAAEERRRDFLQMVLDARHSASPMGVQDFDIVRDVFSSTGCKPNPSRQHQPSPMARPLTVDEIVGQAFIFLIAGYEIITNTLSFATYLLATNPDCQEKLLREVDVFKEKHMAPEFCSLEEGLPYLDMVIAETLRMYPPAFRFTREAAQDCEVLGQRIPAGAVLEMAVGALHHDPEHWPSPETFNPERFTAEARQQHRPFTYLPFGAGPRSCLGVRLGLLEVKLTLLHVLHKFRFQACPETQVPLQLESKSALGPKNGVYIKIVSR

[3] = DRUGMATRIX: GABAA, Chloride Channel, TBOB radioligand binding (ligand: [3H] TBOB); assay type: cell membranes, Rattus norvegicus, Wistar, Cerebral cortex, Membrane; settings: Not Active = under 50% inhibition at 10 µM
Neutrophil elastase = molecular target: T3, Neutrophil elastase (Homo sapiens, UniProt P08246); assay type: tissue-based;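 also: inhibition of neutrophil elastase enzyme activity, measured with a p-nitroanilide-linked peptide substrate; in other assays of this panel Not Active means under 50% inhibition at 10 µM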
T3 sequence (P08246 whole entry): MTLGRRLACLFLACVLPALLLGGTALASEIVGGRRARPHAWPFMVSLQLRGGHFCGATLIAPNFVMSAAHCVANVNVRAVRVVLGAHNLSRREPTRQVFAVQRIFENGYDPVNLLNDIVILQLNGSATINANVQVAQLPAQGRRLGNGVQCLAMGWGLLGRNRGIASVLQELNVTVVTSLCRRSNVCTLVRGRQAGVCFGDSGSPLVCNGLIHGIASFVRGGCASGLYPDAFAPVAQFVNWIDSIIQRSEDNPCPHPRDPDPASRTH

[4] = molecular target: Matrix metalloproteinase-9 (Homo sapiens, UniProt P14780); assay type: cell-based
Chain of Matrix metalloproteinase-9 (P14780 whole entry): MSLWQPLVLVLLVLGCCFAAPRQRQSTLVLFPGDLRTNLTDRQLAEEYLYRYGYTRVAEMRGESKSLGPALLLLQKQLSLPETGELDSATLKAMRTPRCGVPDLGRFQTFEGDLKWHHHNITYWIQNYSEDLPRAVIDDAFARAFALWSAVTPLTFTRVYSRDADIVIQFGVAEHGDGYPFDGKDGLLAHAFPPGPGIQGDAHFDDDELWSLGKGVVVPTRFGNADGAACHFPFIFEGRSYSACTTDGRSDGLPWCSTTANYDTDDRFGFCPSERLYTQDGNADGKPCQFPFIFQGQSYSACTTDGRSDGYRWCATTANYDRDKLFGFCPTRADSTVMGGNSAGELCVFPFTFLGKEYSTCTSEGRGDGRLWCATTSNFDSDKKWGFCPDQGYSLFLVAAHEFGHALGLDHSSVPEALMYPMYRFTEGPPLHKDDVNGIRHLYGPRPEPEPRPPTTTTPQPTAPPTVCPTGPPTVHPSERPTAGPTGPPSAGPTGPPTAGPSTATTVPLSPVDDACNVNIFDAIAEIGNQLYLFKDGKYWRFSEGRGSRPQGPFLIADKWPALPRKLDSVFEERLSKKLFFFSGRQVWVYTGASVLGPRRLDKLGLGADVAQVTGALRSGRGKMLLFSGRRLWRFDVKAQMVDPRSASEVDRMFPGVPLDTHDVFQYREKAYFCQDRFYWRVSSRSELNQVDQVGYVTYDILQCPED

Chain of Substance-P receptor (P25103 whole entry): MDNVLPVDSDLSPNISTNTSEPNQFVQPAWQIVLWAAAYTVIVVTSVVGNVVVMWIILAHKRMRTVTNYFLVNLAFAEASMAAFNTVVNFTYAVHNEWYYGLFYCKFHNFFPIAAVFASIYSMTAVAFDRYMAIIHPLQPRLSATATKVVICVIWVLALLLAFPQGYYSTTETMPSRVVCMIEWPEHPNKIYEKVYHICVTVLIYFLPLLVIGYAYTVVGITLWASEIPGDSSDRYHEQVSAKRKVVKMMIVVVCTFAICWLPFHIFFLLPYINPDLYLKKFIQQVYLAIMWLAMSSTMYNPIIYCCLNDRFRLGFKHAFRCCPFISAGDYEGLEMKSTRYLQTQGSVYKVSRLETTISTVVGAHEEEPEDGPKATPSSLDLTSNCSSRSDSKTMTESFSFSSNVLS
Chain of 5-hydroxytryptamine receptor 2B (P41595 whole entry): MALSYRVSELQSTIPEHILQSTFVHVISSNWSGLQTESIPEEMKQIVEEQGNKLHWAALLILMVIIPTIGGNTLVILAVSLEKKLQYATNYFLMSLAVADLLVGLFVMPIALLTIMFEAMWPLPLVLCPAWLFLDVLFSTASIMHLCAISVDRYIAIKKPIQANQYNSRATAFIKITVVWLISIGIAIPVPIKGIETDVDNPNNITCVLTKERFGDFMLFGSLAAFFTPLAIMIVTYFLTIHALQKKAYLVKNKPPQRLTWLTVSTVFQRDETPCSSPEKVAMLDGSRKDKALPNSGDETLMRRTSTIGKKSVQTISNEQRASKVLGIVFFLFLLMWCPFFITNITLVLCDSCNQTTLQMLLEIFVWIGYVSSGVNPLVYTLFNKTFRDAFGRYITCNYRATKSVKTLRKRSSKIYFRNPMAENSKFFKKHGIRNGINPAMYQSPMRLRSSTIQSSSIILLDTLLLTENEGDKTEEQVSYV

| SMILES | IC50 [1] | IC50 [2] | IC50 (Substance-P receptor) | IC50 (Thromboxane-A synthase; platelet) | IC50 [3] | Ki [3] | IC50 (Neutrophil elastase) | IC50 [4] | IC50 (Thromboxane-A synthase; read-out: IC50) [µM] | Ki [4] |
| --- | --- | --- | --- | --- | --- | --- | --- | --- | --- | --- |
| C[C@@H]1[C@H](O)[C@@H](C)/C=C/C=C/C=C/C=C/C=C/C=C/C=C/[C@H](O[C@@H]2O[C@H](C)[C@@H](O)[C@H](N)[C@@H]2O)C[C@@H]2O[C@](O)(C[C@@H](O)C[C@@H](O)[C@H](O)CC[C@@H](O)C[C@@H](O)CC(=O)O[C@H]1C)C[C@H](O)[C@H]2C(=O)O [AMPHOTERICIN B] | Not Active | Not Active | Not Active | Not Active | Not Active | Not Active | Not Active | Not Active |  |  |
| COc1cc(NC(C)CCCN)c2ncccc2c1 (configuration not stated) [PRIMAQUINE] | Not Active | Not Active | Not Active | Not Active | Not Active | Not Active | Not Active | Not Active |  |  |
| COc1cc(/C=C/C(=O)O)ccc1O [FERULATE] | Not Active | Not Active | Not Active | Not Active | Not Active | Not Active | Not Active | Not Active |  |  |
| CCN1CCN(C(=O)N[C@@H](C(=O)N[C@@H]2C(=O)N3[C@@H]2SC(C)(C)[C@@H]3C(=O)O)c2ccccc2)C(=O)C1=O [PIPERACILLIN] | Not Active | Not Active | Not Active | Not Active | Not Active | Not Active | Not Active | Not Active |  |  |
| C=CCN1CC[C@]23c4c5ccc(O)c4O[C@H]2/C(=N/N=C2\CC[C@@]4(O)[C@H]6Cc7ccc(O)c8c7[C@@]4(CCN6CC=C)[C@H]2O8)CC[C@@]3(O)[C@H]1C5 [NALOXONAZINE] | Not Active | Not Active | Not Active | Not Active | Not Active | Not Active | Not Active | Not Active |  |  |
| c1ccc2c(c1)Nc1ccccc1S2 [PHENOTHIAZINE] | Not Active | Not Active | Not Active | Not Active | Not Active | Not Active | Not Active | Not Active |  |  |
| Cl.NC[C@H]1CC[C@H](C(=O)Oc2ccc(CCC(=O)O)cc2)CC1 [CETRAXATE HYDROCHLORIDE] | Not Active | Not Active | Not Active | Not Active | Not Active | Not Active | Not Active | Not Active |  |  |
| CN(CCOc1ccc(C[C@H](Nc2ccccc2C(=O)c2ccccc2)C(=O)O)cc1)c1ccccn1 | Not Active | Not Active | Not Active |  | Not Active | Not Active | Not Active | Not Active | 2.95 |  |
| Nc1nc(F)nc2c1ncn2[C@@H]1O[C@H](CO)[C@@H](O)[C@@H]1O [FLUDARABINE] | Not Active | Not Active | Not Active | Not Active | Not Active | Not Active | Not Active | Not Active |  |  |
| OC[C@H]1OC2C3[C@@H](CO)OC(O[C@H]4[C@H](O)[C@@H](O)[C@@H](O[C@H]5[C@H](O)[C@@H](O)[C@@H](O[C@H]6[C@H](O)[C@@H](O)[C@@H](O[C@H]7[C@H](O)[C@@H](O)[C@@H](O[C@H]8[C@H](O)[C@@H](O)[C@@H](O[C@H]9[C@H](O)[C@@H](O)C(OC1[C@H](O)[C@H]2O)O[C@@H]9CO)O[C@@H]8CO)O[C@@H]7CO)O[C@@H]6CO)O[C@@H]5CO)O[C@@H]4CO)[C@H](O)[C@H]3O | Not Active | Not Active | Not Active | Not Active | Not Active | Not Active | Not Active | Not Active |  |  |
| C=CCO [ALLYL ALCOHOL] | Not Active | Not Active | Not Active | Not Active | Not Active | Not Active | Not Active | Not Active |  |  |
| C[C@]12CC[C@@H](O)C[C@@H]1CC[C@@H]1[C@@H]2CC[C@]2(C)C(=O)CC[C@@H]12 [ANDROSTERONE] | Not Active | Not Active | Not Active | Not Active | Not Active | Not Active | Not Active |  |  | Not Active |
| COC(=O)Nc1nc2ccc(Sc3ccccc3)cc2[nH]1 [FENBENDAZOLE] | Not Active | Not Active | Not Active | Not Active | Not Active | Not Active | Not Active | Not Active |  |  |
| C#C[C@]1(O)CC[C@H]2[C@@H]3CCC4=CC(=O)CC[C@@H]4[C@H]3CC[C@@]21C [NORETHINDRONE] | Not Active | Not Active | Not Active | Not Active | Not Active | Not Active | Not Active | Not Active |  |  |
| O=C(Nc1ccc(Cl)c(Cl)c1)c1cc(Cl)cc(Cl)c1O [3,3',4',5-TETRACHLOROSALICYLANILIDE] | Not Active | Not Active | Not Active |  | Not Active | Not Active | Not Active | Not Active | 4.93 |  |
| CCN(CCO)CCCC(C)Nc1ccnc2cc(Cl)ccc12 (configuration not stated) [HYDROXYCHLOROQUINE] | Not Active | Not Active | Not Active | Not Active | Not Active | Not Active | Not Active | Not Active |  |  |
| CC1(COc2ccc(CC3SC(=O)NC3=O)cc2)CCCCC1 (configuration not stated) [CIGLITAZONE] | Not Active | Not Active | Not Active | Not Active | Not Active | Not Active | Not Active | Not Active |  |  |
| COc1cc([C@@H]2c3cc4c(cc3[C@H](O)[C@H]3COC(=O)[C@H]23)OCO4)cc(OC)c1OC [PODOFILOX] | Not Active | Not Active | Not Active | Not Active | Not Active | Not Active | Not Active | Not Active |  |  |
| COC(=O)C[C@](O)(CCC(C)(C)O)C(=O)O[C@@H]1C(OC)=C[C@]23CCCN2CCc2cc4c(cc2[C@H]13)OCO4 [HARRINGTONINE] | Not Active | Not Active | Not Active | Not Active | Not Active | Not Active | Not Active | Not Active |  |  |
| CCCCCCNC(=O)n1cc(F)c(=O)[nH]c1=O [CARMOFUR] | Not Active | Not Active | Not Active | Not Active | Not Active | Not Active | Not Active | Not Active |  |  |
| O=c1[nH]cnc2c1ncn2[C@H]1CC[C@@H](CO)O1 [DIDANOSINE] | Not Active | Not Active | Not Active | Not Active | Not Active | Not Active | Not Active | Not Active |  |  |
| O=C(O)CO [GLYCOLIC ACID] | Not Active | Not Active | Not Active | Not Active | Not Active | Not Active | Not Active | Not Active |  |  |
| CC(C)Cc1ccc([C@H](C)C(=O)O)cc1 [DEXIBUPROFEN] | Not Active | Not Active | Not Active | Not Active | Not Active | Not Active | Not Active | Not Active |  |  |
| CC(C)(C#N)c1cc(Cn2cncn2)cc(C(C)(C)C#N)c1 [ANASTROZOLE] | Not Active | Not Active | Not Active | Not Active | Not Active | Not Active | Not Active | Not Active |  |  |
